# From EP0237516A1, “Benzyl-pyrimidine derivatives, process for their preparation and compositions containing them” (COMPAGNIE ROUSSELOT, Société Anonyme:, priority 1986, dated 1987)
# Read-outs that look alike come from different tables or passages of the source.
# Tests used:
# [1] = tested on: Escherichia coli; experiment: MIC determination by serial dilution on Mueller-Hinton agar, trimethoprim-sensitive strains; assay type: cell-based; settings: isethionates, read-out: CMI
# Protocol: (§1) A cet effet, on a déterminé l'activité bactériostatique par la méthode des antibiogrammes par dilution en milieu gélosé (milieu de MUELLER-HINTON déshydraté) et par diffusion en milieu gélosé.
# (§2) On a utilisé le composé à étudier selon une gamme de concentrations de 0,625 à 640 µg/ml (progression de raison 2) à partir de solutions-mères titrant 640 µg/ml à 1280 µg/ml selon la solubilité du composé, toutes les dilutions ultérieures ayant été réalisées dans un mélange méthanol/eau à 20%.
# (§3) On a procédé sur milieu gélosé de MUELLER-HINTON déshydraté, par la méthode des dilutions sériées, les concentrations finales en composé à étudier s'échelonnant de 0,0625 à 32 ou 64 µg/ml.
# (§4) A cet effet, on ensemence des boîtes de PETRI à l'aide d'un inoculateur multiple (inoculum de 5 x 10³ à 1 x 10⁴ unités formant colonies par spot d'inoculation) et on enregistre le résultat après 18 h à 37°C en ne tenant pas compte des micro-colonies qui se développent parfois ni de la présence de moins de 4 colonies d'aspect normal.
# [2] = tested on: Listeria monocytogenes; experiment: as above; assay type: cell-based; settings: isethionates; for MIC: 18 h, Listeria monocytogenes 485, TMP-sensitive, read-out: CMI
# Protocol: as §1, §2, §3, §4
# [3] = tested on: Serratia marcescens; experiment: as above; assay type: cell-based; settings: 18 h; Serratia marcescens 56644; isethionates; read-out: CMI
# Protocol: as §1, §2, §3, §4
# [4] = tested on: Staphylococcus aureus; experiment: as above; assay type: cell-based; settings: isethionates, read-out: CMI
# Protocol: as §1, §2, §3, §4
# [5] = tested on: souches de Staphylococcus aureus résistant à la triméthoprime; experiment: MIC determination by serial dilution on Mueller-Hinton agar; assay type: cell-based; settings: 18 h, compounds as isethionate, read-out: CMI
# [6] = tested on: souches de Staphylococcus aureus résistant à la triméthoprime; experiment: as above; assay type: cell-based; settings: 18 h, from hospitalised patients, compounds as free base, read-out: CMI
# Protocol: as §1, §2, §3, §4
# Les composés sous forme basique, des Exemples 1 et 4 ont été étudiés comparativement à la triméthoprime (TMP) à l'égard de 4 souches provenant de malades hospitalisés.
# A cet effet, on a solubilisé les composés à étudier sous forme basique dans un mélange comprenant 9 ml d'eau distillée, 1 ml de diméthylformamide et quelques gouttes d'acide iséthionique.
# [7] = tested on: souches de Staphylococcus aureus résistant à la triméthoprime; experiment: Bacteriostatic activity by disc diffusion on Mueller-Hinton agar; assay type: cell-based; settings: 5 µg per disc, free base, read-out: Diamètre d'inhibition
# Protocol: On utilise à cet effet le milieu gélosé de MUELLER-HINTON que l'on ensemence par inondation à partir d'une suspension bactérienne titrant 5 x 10⁶ à 1 x 10⁷ unités formant colonies par ml. On imprègne les disques (disque de 6 mm de diamètre de SCHLEICHER et SCHULL) avec 20 µl d'une solution de chaque composé à étudier de façon à obtenir une charge de 5 µg par disque. A titre de contrôle lors de chaque manipulation, on charge également un disque avec 5 µg de triméthoprime. On néglige également dans ce test les microcolonies qui peuvent apparaître à l'intérieur des zones d'inhibition.
# On a obtenu les résultats suivants exprimés en mm d'inhibition, avec des composés de l'invention sous forme basique comparativement à la triméthoprime. Ces résultats ont été enregistrés vis-à-vis de souches de Staphylococcus aureus résistant à la triméthoprime.
# [8] = tested on: 73 souches de bacilles à Gram -; experiment: Activity against Gram-negative bacilli, count of resistant strains; assay type: cell-based; settings: number of resistant strains out of 73 Gram-negative bacilli strains
# Description: (§5) L'action du composé de l'Exemple 21 a été étudiée comparativement à l'iséthionate de triméthoprime vis-à-vis de 73 souches de bacilles à Gram -. Des résultats trouvés, on a pu conclure que 33 souches étaient résistantes au sel de triméthoprime et 65 souches étaient résistantes au composé de l'Exemple 21.
# [9] = tested on: bacilles à Gram -; experiment: Activity in association with sulfamethoxazole; assay type: cell-based
# Description: as §5
# Par contre, si on associe chacun de ces composés au sulfaméthoxazole, le spectre d'activité de l'association composé de l'Exemple 21/-sulfaméthoxazole est similaire à celui de l'association de triméthoprime/ sulfaméthoxazole.
# [10] = Acute toxicity, intravenous; settings: mouse, in vivo; mice, groups of 5, intravenous route; read-out: DL₅₀
# Protocol: La toxicité aiguë des composés de l'invention a été déterminée sur des lots de 5 souris par voie intraveineuse. On a ainsi trouvé que la DL₅₀du composé de l'Exemple 9, selon cette voie d'administration, est de 157,4 mg/kg.
# [11] = ATCC25922, 18 h, Escherichia coli ATCC 25922
# [12] = Listeria monocytogenes 378, TMP-sensitive
# [13] = 18 h, Staphylococcus aureus 18839, TMP-sensitive
# [14] = ATCC6338, 18 h, Staphylococcus aureus ATCC 6338, TMP-sensitive
# [15] = ATCC25923, 18 h, Staphylococcus aureus ATCC 25923, TMP-sensitive
# [16] = strain No. 23543, TMP-resistant
# [17] = strain No. 33274, TMP-resistant
# [18] = strain No. 40314, TMP-resistant
# [19] = strain No. 57760, TMP-resistant
# [20] = Listeria monocytogenes 5921, TMP-sensitive
# [21] = Listeria monocytogenes 6777, TMP-sensitive
Compound,MIC [2],"MIC ([5]; strain No. 82, TMP-resistant)","MIC ([5]; strain No. 87, TMP-resistant)","MIC ([5]; strain No. 102, TMP-resistant)","MIC [6, 16]","MIC [6, 17]","MIC [6, 18]","MIC [6, 19]","MIC ([1]; 18 h, Escherichia coli 33430)","MIC [1, 11]","CMI [2, 12]",MIC [3],"MIC [4, 14]","MIC [4, 15]","MIC ([5]; strain No. 101, TMP-resistant)","zone of inhibition at 5 µg/disc [7, 16]","zone of inhibition at 5 µg/disc [7, 17]","zone of inhibition at 5 µg/disc [7, 18]","zone of inhibition at 5 µg/disc [7, 19]","MIC ([5]; strain No. 107, TMP-resistant)",also measured
"CCOc1cc(I)c(Cc2cnc(N)nc2N)cc1OC [Ex. 1, diamino-2,4 (iodo-2 éthoxy-4 méthoxy-5 benzyl)-5 pyrimidine]",–,–,–,–,2 µg/mL,< 0.06 µg/mL,0.12 µg/mL,1 µg/mL,–,–,–,–,–,–,–,19 mm,32 mm,32 mm,24 mm,–,–
"COc1cc(Cc2cnc(N)nc2N)c(Br)cc1OC1CCCC1 [Ex. 21, Iséthionate de diamino-2,4 (bromo-2 cyclopentyloxy-4 méthoxy-5 benzyl)-5 pyrimidine]",0.06 µg/mL,1 µg/mL,1 µg/mL,1 µg/mL,–,–,–,–,16 µg/mL,32 µg/mL,"0,06 µg/ml",16 µg/mL,0.06 µg/mL,0.5 µg/mL,2 µg/mL,–,–,–,–,4 µg/mL,"CMI [2, 20]: 0,06 µg/ml; CMI [2, 21]: 0,06 µg/ml; souches résistantes [8]: 65 souches; potentialisation du sulfaméthoxazole ([9]; compared with the trimethoprim salt): potentialise aussi bien le sulfaméthoxazole que ne le fait le sel de triméthoprime; spectre d'activité de l'association ([9]; in association with sulfaméthoxazole, compared with the association triméthoprime/sulfaméthoxazole): similaire; MIC ([5]; strain No. 109, TMP-resistant): 0.5 µg/mL"
"CCOc1cc(I)c(Cc2cnc(N)nc2N)cc1OCC [Exemple 9, Lactobionate de diamino-2,4 (iodo-2 diéthoxy-4,5 benzyl)-5 pyrimidine]",–,–,–,–,–,–,–,–,–,–,–,–,–,–,–,–,–,–,–,–,LD50 [10]: 157 mg/kg
"COc1cc(Cc2cnc(N)nc2N)cc(OC)c1OC [Iséthionate de TMP, iséthionate de triméthoprime, reference compound]",–,16 µg/mL,8 µg/mL,16 µg/mL,–,–,–,–,8 µg/mL,4 µg/mL,–,2 µg/mL,0.06 µg/mL,0.25 µg/mL,16 µg/mL,–,–,–,–,64 µg/mL,"souches résistantes [8]: 33 souches; MIC ([5]; strain No. 109, TMP-resistant): 8 µg/mL"
"COc1cc(Cc2cnc(N)nc2N)cc(OC)c1OC [TMP, diamino-2,4 (triméthoxy-3,4,5 benzyl)-5 pyrimidine, reference compound]",–,–,–,–,16 µg/mL,> 64 µg/mL,64 µg/mL,> 64 µg/mL,–,–,–,–,–,–,–,0 mm,0 mm,0 mm,0 mm,–,–

# More lines, main results first:
MIC [2],"MIC ([5]; strain No. 82, TMP-resistant)","MIC ([5]; strain No. 87, TMP-resistant)","MIC ([5]; strain No. 102, TMP-resistant)","MIC [6, 16]","MIC [6, 17]","MIC [6, 18]","MIC [6, 19]",Compound,"MIC ([1]; 18 h, Escherichia coli 33430)","MIC [1, 11]","CMI [2, 12]",MIC [3],"MIC [4, 14]","MIC [4, 15]","MIC ([5]; strain No. 101, TMP-resistant)","zone of inhibition at 5 µg/disc [7, 16]","zone of inhibition at 5 µg/disc [7, 17]","zone of inhibition at 5 µg/disc [7, 18]","zone of inhibition at 5 µg/disc [7, 19]","MIC ([5]; strain No. 107, TMP-resistant)",also measured
0.25 µg/mL,32 µg/mL,8 µg/mL,32 µg/mL,–,–,–,–,"COc1cc(Cc2cnc(N)nc2N)ccc1OC1CCCC1 [Composé X, reference compound]",> 64 µg/mL,> 64 µg/mL,"0,25 µg/ml",32 µg/mL,0.25 µg/mL,1 µg/mL,32 µg/mL,–,–,–,–,–,"MIC [4, 13]: 0.5 µg/mL"
–,–,–,–,2 µg/mL,0.25 µg/mL,< 0.06 µg/mL,2 µg/mL,"COc1cc(Cc2cnc(N)nc2N)c(I)cc1OC1CCCC1 [Ex. 4, Diamino-2,4 (iodo-2 cyclopentyloxy-4 méthoxy-5 benzyl)-5 pyrimidine]",–,–,–,–,–,–,–,19 mm,29 mm,35 mm,20 mm,–,–
–,2 µg/mL,2 µg/mL,4 µg/mL,–,–,–,–,"COc1cc(Cc2cnc(N)nc2N)c(I)cc1OC1CCCC1 [Ex. 18, Iséthionate de diamino-2,4 (iodo-2 cyclopentyloxy-4 méthoxy-5 benzyl)-5 pyrimidine]",–,–,–,–,–,–,–,–,–,–,–,4 µg/mL,–
0.06 µg/mL,0.5 µg/mL,1 µg/mL,0.5 µg/mL,–,–,–,–,"COc1cc(Cc2cnc(N)nc2N)c(Br)cc1OC1CCCCC1 [Ex. 24, Iséthionate de diamino-2,4 (bromo-2 cyclohexyloxy-4 méthoxy-5 benzyl)-5 pyrimidine]",> 64 µg/mL,> 64 µg/mL,"0,06 µg/ml",> 64 µg/mL,0.06 µg/mL,–,0.5 µg/mL,–,–,–,–,–,"CMI [2, 20]: 0,06 µg/ml; CMI [2, 21]: 0,06 µg/ml; MIC [4, 13]: 0.06 µg/mL"
